In patent US5534508A, “Cephem compounds and antimicrobial agents” (Katayama Seiyakusyo Co., Ltd., priority 1993, dated 1996):
Values after ≈ are worked out from the molar mass of the structure shown.

Legend:
Assay type in all cases: cell-based
clinically isolated MRSA = assay: Antibacterial potency against clinically isolated MRSA (47 strains); conditions: Staphylococcus aureus; for MIC50: concentration inhibiting growth of 50% of 47 clinically isolated MRSA strains; for MIC90: concentration inhibiting growth of 90% of 47 clinically isolated MRSA strains
Procedure: A test on the antibacterial potency against clinically isolated MRSA was conducted in the following way.
That is, using 47 strains of clinically isolated MRSA, MIC was determined for each of the test strains in accordance with the standard method of the Japan Chemotherapical Society as in Test Example 1, and the minimum growth inhibitory concentration which inhibited growth of 50% of the strains tested was expressed as MIC50 (μg/ml), and the minimum growth inhibitory concentration which inhibited growth of 90% of the strains tested was expressed as MIC90 (μg/ml).
In this test, FMOX was used as the control agent.

P. cepacia CN 9113 = assay: MIC against standard strains (Table 1), P. cepacia CN 9113; conditions: Burkholderia cepacia, CN9113, Muller-Hinton agar, overnight 37° C., read-out: MIC (minimum growth inhibitory concentration)
Procedure: (§1) The minimum growth inhibitory concentration (MIC, μg/ml) of the compounds for each of the 25 standard laboratory strains (standard strains) shown in Table 1 was determined in accordance with the standard method of the Japan Chemotherapical Society (Chemotherapy, 29, 76-79 (1981) under "Re-revision of the measuring methods of minimum growth inhibitory concentration (MIC)").
(§2) That is, by using each test strain cultured overnight at 37° C. in a Muller-Hinton broth, there was prepared a bacterial solution with a cell density of 1×10^6 CFU/ml in the same broth. The bacterial solution was inoculated into the Muller-Hinton agar media each containing respectively one test agent (i.e., compound) and, after overnight incubation at 37° C., the minimum concentration that inhibited growth of the bacteria was determined and expressed as MIC.
(§3) Staphylococcus aureus 167 and Staphylococcus aureus 195 used in the test were MRSA. CTM (cefotiam) and FMOX (flomoxef) were used as the control agents.

K. pneuminiae IFO 3317 = assay: MIC against standard strains (Table 1), K. pneuminiae IFO 3317; conditions: Muller-Hinton agar, overnight 37° C., read-out: MIC (minimum growth inhibitory concentration)
Procedure: as §1, §2, §3

S. marcescens IAM 1184 = assay: MIC against standard strains (Table 1), S. marcescens IAM 1184; conditions: Serratia marcescens, IAM1184, Muller-Hinton agar, overnight 37° C., read-out: MIC (minimum growth inhibitory concentration)
Procedure: as §1, §2, §3

A. faecalis ATCC 3750 = assay: MIC against standard strains (Table 1), A. faecalis ATCC 3750; conditions: Alcaligenes faecalis, ATCC3750, Muller-Hinton agar, overnight 37° C., read-out: MIC (minimum growth inhibitory concentration)
Procedure: as §1, §2, §3

P. aeruginosa AKR17 = assay: MIC against standard strains (Table 1), P. aeruginosa AKR17; conditions: Pseudomonas aeruginosa, Muller-Hinton agar, overnight 37° C., read-out: MIC (minimum growth inhibitory concentration)
Procedure: as §1, §2, §3

C. freundii ATCC 8090 = assay: MIC against standard strains (Table 1), C. freundii ATCC 8090; conditions: Citrobacter freundii, ATCC8090, Muller-Hinton agar, overnight 37° C., read-out: MIC (minimum growth inhibitory concentration)
Procedure: as §1, §2, §3

S. aureus 167 = assay: MIC against standard strains (Table 1), S. aureus 167 (MRSA); conditions: Staphylococcus aureus, Muller-Hinton agar, overnight 37° C., read-out: MIC (minimum growth inhibitory concentration)
Procedure: as §1, §2, §3

S. aureus 195 = assay: MIC against standard strains (Table 1), S. aureus 195 (MRSA); conditions: Staphylococcus aureus, Muller-Hinton agar, overnight 37° C., read-out: MIC (minimum growth inhibitory concentration)
Procedure: as §1, §2, §3

A. calcoaceticos T59 = assay: MIC against standard strains (Table 1), A. calcoaceticos T59; conditions: Muller-Hinton agar, overnight 37° C., read-out: MIC (minimum growth inhibitory concentration)
Procedure: as §1, §2, §3

S. aureus Smith = assay: MIC against standard strains (Table 1), S. aureus Smith; conditions: Staphylococcus aureus, Muller-Hinton agar, overnight 37° C., read-out: MIC (minimum growth inhibitory concentration)
Procedure: as §1, §2, §3

E. coli CSH2(RK1) = assay: MIC against standard strains (Table 1), E. coli CSH2(RK1); conditions: Escherichia coli, read-out: MIC (minimum growth inhibitory concentration)
Procedure: as §1, §2, §3

P. aeruginosa NCTC 10490 = assay: MIC against standard strains (Table 1), P. aeruginosa NCTC 10490; conditions: Pseudomonas aeruginosa, NCTC10490, Muller-Hinton agar, overnight 37° C., read-out: MIC (minimum growth inhibitory concentration)
Procedure: as §1, §2, §3

S. epidemidis IAM 1296 = assay: MIC against standard strains (Table 1), S. epidemidis IAM 1296; conditions: Muller-Hinton agar, overnight 37° C., read-out: MIC (minimum growth inhibitory concentration)
Procedure: as §1, §2, §3

E. cloacae Nek39 = assay: MIC against standard strains (Table 1), E. cloacae Nek39; conditions: Enterobacter cloacae, Muller-Hinton agar, overnight 37° C., read-out: MIC (minimum growth inhibitory concentration)
Procedure: as §1, §2, §3

E. cloacae ATCC 13407 = assay: MIC against standard strains (Table 1), E. cloacae ATCC 13407; conditions: Enterobacter cloacae, ATCC13407, Muller-Hinton agar, overnight 37° C., read-out: MIC (minimum growth inhibitory concentration)
Procedure: as §1, §2, §3

M. morganii IFO 3848 = assay: MIC against standard strains (Table 1), M. morganii IFO 3848; conditions: Morganella morganii, IFO3848, Muller-Hinton agar, overnight 37° C., read-out: MIC (minimum growth inhibitory concentration)
Procedure: as §1, §2, §3

E. coli JC-2 = assay: MIC against standard strains (Table 1), E. coli JC-2; conditions: Escherichia coli, JC2, Muller-Hinton agar, overnight 37° C., read-out: MIC (minimum growth inhibitory concentration)
Procedure: as §1, §2, §3

P. vulugaris OX-19 = assay: MIC against standard strains (Table 1), P. vulugaris OX-19; conditions: Muller-Hinton agar, overnight 37° C., read-out: MIC (minimum growth inhibitory concentration)
Procedure: as §1, §2, §3

S. marcescens No. 16-2 = assay: MIC against standard strains (Table 1), S. marcescens No. 16-2; conditions: Serratia marcescens, NO.162, Muller-Hinton agar, overnight 37° C., read-out: MIC (minimum growth inhibitory concentration)
Procedure: as §1, §2, §3

M. luteus ATCC 9341 = assay: MIC against standard strains (Table 1), M. luteus ATCC 9341; conditions: Micrococcus luteus, ATCC9341, Muller-Hinton agar, overnight 37° C., read-out: MIC (minimum growth inhibitory concentration)
Procedure: as §1, §2, §3

P. mirabilis IFO 3849 = assay: MIC against standard strains (Table 1), P. mirabilis IFO 3849; conditions: Proteus mirabilis, IFO3849, Muller-Hinton agar, overnight 37° C., read-out: MIC (minimum growth inhibitory concentration)
Procedure: as §1, §2, §3

E. coli CSH2(RE45) = assay: MIC against standard strains (Table 1), E. coli CSH2(RE45); conditions: Escherichia coli, read-out: MIC (minimum growth inhibitory concentration)
Procedure: as §1, §2, §3

S. aureus 209p JC-1 = assay: MIC against standard strains (Table 1), S. aureus 209p JC-1; conditions: Staphylococcus aureus, Muller-Hinton agar, overnight 37° C., read-out: MIC (minimum growth inhibitory concentration)
Procedure: as §1, §2, §3

K. pneuminiae No. 42 = assay: MIC against standard strains (Table 1), K. pneuminiae No. 42; conditions: Muller-Hinton agar, overnight 37° C., read-out: MIC (minimum growth inhibitory concentration)
Procedure: as §1, §2, §3

B. subtilis ATCC 6633 = assay: MIC against standard strains (Table 1), B. subtilis ATCC 6633; conditions: Bacillus subtilis, ATCC6633, Muller-Hinton agar, overnight 37° C., read-out: MIC (minimum growth inhibitory concentration)
Procedure: as §1, §2, §3

Compound	MIC50 (clinically isolated MRSA) [µg/mL]	MIC90 (clinically isolated MRSA) [µg/mL]	MIC (P. cepacia CN 9113) [µg/mL]	MIC (K. pneuminiae IFO 3317) [µg/mL]	MIC (S. marcescens IAM 1184) [µg/mL]	MIC (A. faecalis ATCC 3750) [µg/mL]	MIC (P. aeruginosa AKR17) [µg/mL]	MIC (C. freundii ATCC 8090) [µg/mL]	MIC (S. aureus 167) [µg/mL]	MIC (S. aureus 195) [µg/mL]	MIC (A. calcoaceticos T59) [µg/mL]	MIC (S. aureus Smith) [µg/mL]	MIC (E. coli CSH2(RK1)) [µg/mL]	MIC (P. aeruginosa NCTC 10490) [µg/mL]	MIC (S. epidemidis IAM 1296) [µg/mL]	MIC (E. cloacae Nek39) [µg/mL]	MIC (E. cloacae ATCC 13407) [µg/mL]	MIC (M. morganii IFO 3848) [µg/mL]	MIC (E. coli JC-2) [µg/mL]	MIC (P. vulugaris OX-19) [µg/mL]	other results
NC(=O)c1ccc[n+](C/C=C/C2=C(C(=O)[O-])N3C(=O)[C@@H](NC(=O)/C(=N\O)c4csc(N)n4)[C@H]3SC2)c1 [Compound 18, 7β-[2-(2-aminothiazol-4-yl)-2-syn-hydroxyiminoacetamido]-3-[(E)-3-(3-carbamoylpyridinio)-1-propenyl]-3-cephem-4-carboxylate]	2.63 (≈ 4.97 µM)	22.2 (≈ 41.9 µM)	> 100	0.05 (≈ 0.0944 µM)	0.05 (≈ 0.0944 µM)	0.78 (≈ 1.47 µM)	> 100	0.05 (≈ 0.0944 µM)	50 (≈ 94.4 µM)	3.13 (≈ 5.91 µM)	3.13 (≈ 5.91 µM)	0.1 (≈ 0.189 µM)	0.1 (≈ 0.189 µM)	1.56 (≈ 2.95 µM)	0.05 (≈ 0.0944 µM)	6.25 (≈ 11.8 µM)	0.1 (≈ 0.189 µM)	0.05 (≈ 0.0944 µM)	0.05 (≈ 0.0944 µM)	0.1 (≈ 0.189 µM)	MIC (S. marcescens No. 16-2): 12.5 µg/mL (≈ 23.6 µM); MIC (M. luteus ATCC 9341): 0.05 µg/mL (≈ 0.0944 µM); MIC (P. mirabilis IFO 3849): 0.1 µg/mL (≈ 0.189 µM); MIC (E. coli CSH2(RE45)): 0.05 µg/mL (≈ 0.0944 µM); MIC (S. aureus 209p JC-1): 0.1 µg/mL (≈ 0.189 µM); MIC (K. pneuminiae No. 42): 0.1 µg/mL (≈ 0.189 µM); MIC (B. subtilis ATCC 6633): 0.1 µg/mL (≈ 0.189 µM)
NC(=O)c1cc[n+](C/C=C/C2=C(C(=O)[O-])N3C(=O)[C@@H](NC(=O)/C(=N\O)c4csc(N)n4)[C@H]3SC2)cc1 [Compound 19, 7β-[2-(2-aminothiazol-4-yl)-2-syn-hydroxyiminoacetamido]-3-[(E)-3-(4-carbamoylpyridinio)-1-propenyl]-3-cephem-4-carboxylate]	2.92 (≈ 5.51 µM)	17.4 (≈ 32.8 µM)	> 100	0.05 (≈ 0.0944 µM)	0.1 (≈ 0.189 µM)	1.56 (≈ 2.95 µM)	> 100	0.05 (≈ 0.0944 µM)	100 (≈ 189 µM)	3.13 (≈ 5.91 µM)	3.13 (≈ 5.91 µM)	0.2 (≈ 0.378 µM)	0.2 (≈ 0.378 µM)	1.56 (≈ 2.95 µM)	0.05 (≈ 0.0944 µM)	12.5 (≈ 23.6 µM)	0.39 (≈ 0.736 µM)	0.05 (≈ 0.0944 µM)	0.1 (≈ 0.189 µM)	0.1 (≈ 0.189 µM)	MIC (S. marcescens No. 16-2): 12.5 µg/mL (≈ 23.6 µM); MIC (M. luteus ATCC 9341): 0.05 µg/mL (≈ 0.0944 µM); MIC (P. mirabilis IFO 3849): 0.2 µg/mL (≈ 0.378 µM); MIC (E. coli CSH2(RE45)): 0.1 µg/mL (≈ 0.189 µM); MIC (S. aureus 209p JC-1): 0.1 µg/mL (≈ 0.189 µM); MIC (K. pneuminiae No. 42): 0.1 µg/mL (≈ 0.189 µM); MIC (B. subtilis ATCC 6633): 0.2 µg/mL (≈ 0.378 µM)
